Data published in ChEMBL document CHEMBL3808387, “Discovery of IWP-051, a Novel Orally Bioavailable sGC Stimulator with Once-Daily Dosing Potential in Humans” (ACS Med Chem Lett, 2016).
Values after ≈ are worked out from the molar mass of the structure shown. Each block holds one compound with its values, some of them ahead of it.

Experiments:
[1] = molecular target: Soluble guanylate cyclase (Homo sapiens, UniProt O75343+P33402+Q02108+Q02153); assay: Activation of SGC in HEK293 cells assessed as cGMP production after 20 mins by LC-MS/MS analysis in presence of NO-donor DETA-NONOate; assay type: cell-based
Soluble guanylate cyclase, sequence (Q02153 whole entry): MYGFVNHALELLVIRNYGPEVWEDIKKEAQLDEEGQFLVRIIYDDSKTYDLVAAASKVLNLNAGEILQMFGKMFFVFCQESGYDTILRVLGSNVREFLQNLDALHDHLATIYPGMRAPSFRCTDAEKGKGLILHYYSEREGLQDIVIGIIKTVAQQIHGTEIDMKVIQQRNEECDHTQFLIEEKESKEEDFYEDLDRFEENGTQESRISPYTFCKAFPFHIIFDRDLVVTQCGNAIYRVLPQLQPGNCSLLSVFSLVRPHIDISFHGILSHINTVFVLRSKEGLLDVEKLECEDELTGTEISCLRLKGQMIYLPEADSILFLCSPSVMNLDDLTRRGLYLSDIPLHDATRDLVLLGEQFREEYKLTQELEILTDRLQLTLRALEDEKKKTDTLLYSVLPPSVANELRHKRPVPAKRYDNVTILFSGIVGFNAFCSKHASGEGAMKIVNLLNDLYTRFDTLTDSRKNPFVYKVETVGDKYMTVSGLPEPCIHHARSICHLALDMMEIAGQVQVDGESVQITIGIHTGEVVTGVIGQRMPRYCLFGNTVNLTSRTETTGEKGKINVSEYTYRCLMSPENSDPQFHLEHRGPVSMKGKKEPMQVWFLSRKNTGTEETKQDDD
Soluble guanylate cyclase, sequence (O75343 whole entry): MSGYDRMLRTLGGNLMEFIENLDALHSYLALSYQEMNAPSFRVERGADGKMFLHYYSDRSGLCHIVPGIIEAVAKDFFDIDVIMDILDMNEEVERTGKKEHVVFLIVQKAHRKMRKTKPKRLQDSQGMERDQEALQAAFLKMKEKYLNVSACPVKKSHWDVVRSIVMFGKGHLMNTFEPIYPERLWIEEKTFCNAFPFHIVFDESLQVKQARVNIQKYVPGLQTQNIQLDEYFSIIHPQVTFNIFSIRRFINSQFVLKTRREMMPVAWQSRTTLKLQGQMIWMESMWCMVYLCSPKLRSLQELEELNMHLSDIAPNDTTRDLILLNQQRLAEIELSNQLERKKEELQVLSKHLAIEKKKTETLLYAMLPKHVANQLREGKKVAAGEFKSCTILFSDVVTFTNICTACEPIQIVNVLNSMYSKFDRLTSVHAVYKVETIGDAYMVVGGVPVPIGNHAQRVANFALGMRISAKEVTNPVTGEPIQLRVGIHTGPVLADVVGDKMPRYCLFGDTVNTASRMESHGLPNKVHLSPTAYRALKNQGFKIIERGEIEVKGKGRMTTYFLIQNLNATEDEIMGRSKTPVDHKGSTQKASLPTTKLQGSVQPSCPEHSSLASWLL
Soluble guanylate cyclase, sequence (P33402 whole entry): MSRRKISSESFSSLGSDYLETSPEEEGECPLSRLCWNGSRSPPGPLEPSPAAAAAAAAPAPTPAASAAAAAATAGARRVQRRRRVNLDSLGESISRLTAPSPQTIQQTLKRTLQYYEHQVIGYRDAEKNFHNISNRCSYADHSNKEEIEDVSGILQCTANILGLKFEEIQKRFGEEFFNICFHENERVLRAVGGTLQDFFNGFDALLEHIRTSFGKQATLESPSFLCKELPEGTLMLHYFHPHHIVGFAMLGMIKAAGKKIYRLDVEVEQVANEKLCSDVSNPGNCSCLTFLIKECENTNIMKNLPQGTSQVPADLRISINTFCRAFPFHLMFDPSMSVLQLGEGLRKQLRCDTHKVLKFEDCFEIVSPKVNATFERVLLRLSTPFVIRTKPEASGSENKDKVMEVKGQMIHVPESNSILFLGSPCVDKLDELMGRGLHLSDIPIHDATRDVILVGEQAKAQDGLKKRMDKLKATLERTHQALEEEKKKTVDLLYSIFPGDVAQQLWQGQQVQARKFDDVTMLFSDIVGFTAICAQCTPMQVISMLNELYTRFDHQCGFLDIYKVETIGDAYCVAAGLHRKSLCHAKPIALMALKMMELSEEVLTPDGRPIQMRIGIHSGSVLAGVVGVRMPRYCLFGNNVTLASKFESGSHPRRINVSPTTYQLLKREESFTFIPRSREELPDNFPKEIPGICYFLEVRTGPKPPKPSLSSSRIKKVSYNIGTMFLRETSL
Soluble guanylate cyclase, sequence (Q02108 whole entry): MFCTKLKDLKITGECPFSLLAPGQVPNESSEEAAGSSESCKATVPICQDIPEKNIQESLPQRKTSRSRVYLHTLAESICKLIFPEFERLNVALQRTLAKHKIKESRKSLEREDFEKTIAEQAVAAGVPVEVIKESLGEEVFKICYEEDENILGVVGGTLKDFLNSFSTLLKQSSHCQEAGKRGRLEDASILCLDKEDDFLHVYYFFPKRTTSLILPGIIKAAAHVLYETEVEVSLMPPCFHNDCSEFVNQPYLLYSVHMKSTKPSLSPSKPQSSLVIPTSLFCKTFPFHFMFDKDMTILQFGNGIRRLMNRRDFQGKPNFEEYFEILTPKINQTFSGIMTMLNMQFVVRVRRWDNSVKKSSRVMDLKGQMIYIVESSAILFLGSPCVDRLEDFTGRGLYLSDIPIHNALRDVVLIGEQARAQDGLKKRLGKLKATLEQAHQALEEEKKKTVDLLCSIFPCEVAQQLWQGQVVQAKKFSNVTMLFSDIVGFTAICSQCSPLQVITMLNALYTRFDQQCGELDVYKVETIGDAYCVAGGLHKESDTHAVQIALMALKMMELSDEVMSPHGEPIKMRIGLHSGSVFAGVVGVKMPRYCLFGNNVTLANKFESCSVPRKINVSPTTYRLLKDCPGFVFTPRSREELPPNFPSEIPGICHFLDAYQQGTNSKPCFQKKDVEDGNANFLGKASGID

[2] = Intrinsic clearance in Sprague-Dawley rat liver microsomes assessed per mg of protein at 2 uM after 10 to 30 mins by LC/MS/MS analysis in presence of NADPH; assay type: ADME; conditions: read-out: CLH
[3] = Intrinsic clearance in human liver microsomes assessed per mg of protein at 2 uM after 10 to 30 mins by LC/MS/MS analysis in presence of NADPH; assay type: ADME; conditions: read-out: CLH
[4] = molecular target: Soluble guanylate cyclase (Homo sapiens) (UniProt Q02153+O75343+P33402+Q02108); assay: Activation of SGC in HEK293 cells assessed as cGMP production at 30 uM after 20 mins by LC-MS/MS analysis in presence of NO-donor DETA-NONOate; assay type: cell-based
[5] = Dissociation constant, pKa of the compound; assay type: physicochemical
[6] = Thermodynamic solubility of the compound at pH 7.4; assay type: physicochemical; conditions: buffer, read-out: Therm_solubility
[7] = Thermodynamic solubility of the compound at pH 9.2; assay type: physicochemical; conditions: buffer, read-out: Therm_solubility
[8] = Apparent permeability of compound from apical to basolateral side; assay type: physicochemical; conditions: not told
[9] = molecular target: Kappa-type opioid receptor (Homo sapiens, UniProt P41145); assay: Binding affinity to KOP receptor (unknown origin) at 10 uM
[10] = molecular target: Dual specificity calcium/calmodulin-dependent 3',5'-cyclic nucleotide phosphodiesterase 1B (Homo sapiens) (UniProt Q01064); assay: Inhibition of PDE1B (unknown origin) at 10 uM
Dual specificity calcium/calmodulin-dependent 3',5'-cyclic nucleotide phosphodiesterase 1B (Homo sapiens), sequence (Q01064 whole entry): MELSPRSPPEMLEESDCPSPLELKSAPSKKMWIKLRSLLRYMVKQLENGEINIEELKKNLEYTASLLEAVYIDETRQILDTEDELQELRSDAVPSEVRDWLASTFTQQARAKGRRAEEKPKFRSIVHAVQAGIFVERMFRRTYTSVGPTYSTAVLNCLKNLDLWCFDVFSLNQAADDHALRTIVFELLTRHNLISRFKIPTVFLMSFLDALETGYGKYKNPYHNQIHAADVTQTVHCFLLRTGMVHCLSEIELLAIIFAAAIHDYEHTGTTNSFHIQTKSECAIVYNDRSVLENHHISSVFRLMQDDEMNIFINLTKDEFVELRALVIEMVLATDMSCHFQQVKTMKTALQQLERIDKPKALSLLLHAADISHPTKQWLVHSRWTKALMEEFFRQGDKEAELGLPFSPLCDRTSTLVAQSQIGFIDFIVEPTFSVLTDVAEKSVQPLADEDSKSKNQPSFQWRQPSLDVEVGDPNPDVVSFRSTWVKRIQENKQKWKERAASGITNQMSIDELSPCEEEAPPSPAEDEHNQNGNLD

[11] = molecular target: cGMP-dependent 3',5'-cyclic phosphodiesterase (Homo sapiens) (UniProt O00408); assay: Inhibition of PDE2A (unknown origin) at 10 uM
[12] = molecular target: cGMP-inhibited 3',5'-cyclic phosphodiesterase 3A (Homo sapiens) (UniProt Q14432); assay: Inhibition of PDE3A (unknown origin) at 10 uM
[13] = molecular target: 3',5'-cyclic-AMP phosphodiesterase 4D (Homo sapiens) (UniProt Q08499); assay: Inhibition of PDE4D2 (unknown origin) at 10 uM
3',5'-cyclic-AMP phosphodiesterase 4D (Homo sapiens), sequence (Q08499 whole entry): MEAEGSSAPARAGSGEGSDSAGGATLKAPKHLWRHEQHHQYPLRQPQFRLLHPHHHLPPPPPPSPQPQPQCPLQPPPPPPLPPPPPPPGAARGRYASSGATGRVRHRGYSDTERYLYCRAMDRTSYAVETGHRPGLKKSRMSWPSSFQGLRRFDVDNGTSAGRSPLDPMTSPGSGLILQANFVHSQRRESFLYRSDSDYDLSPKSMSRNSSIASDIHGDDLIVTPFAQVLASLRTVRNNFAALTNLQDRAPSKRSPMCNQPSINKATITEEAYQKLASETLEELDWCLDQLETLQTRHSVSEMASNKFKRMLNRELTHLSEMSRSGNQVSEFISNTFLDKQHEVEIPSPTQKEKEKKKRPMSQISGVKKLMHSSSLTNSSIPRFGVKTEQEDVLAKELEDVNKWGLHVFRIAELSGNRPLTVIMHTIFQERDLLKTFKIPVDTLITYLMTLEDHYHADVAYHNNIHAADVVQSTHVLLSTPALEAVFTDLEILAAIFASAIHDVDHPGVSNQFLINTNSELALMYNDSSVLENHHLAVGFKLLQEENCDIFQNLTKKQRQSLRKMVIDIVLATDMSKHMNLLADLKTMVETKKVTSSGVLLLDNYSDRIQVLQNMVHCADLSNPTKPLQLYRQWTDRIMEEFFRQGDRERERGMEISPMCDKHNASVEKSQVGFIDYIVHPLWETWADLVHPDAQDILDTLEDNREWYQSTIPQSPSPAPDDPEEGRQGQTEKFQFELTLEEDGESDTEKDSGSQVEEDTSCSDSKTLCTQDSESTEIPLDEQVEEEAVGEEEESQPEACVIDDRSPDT

[14] = molecular target: cGMP-specific 3',5'-cyclic phosphodiesterase (Homo sapiens) (UniProt O76074); assay: Inhibition of PDE5 (unknown origin) at 10 uM
[15] = molecular target: cAMP and cAMP-inhibited cGMP 3',5'-cyclic phosphodiesterase 10A (Homo sapiens) (UniProt Q9Y233); assay: Inhibition of PDE10A (unknown origin) at 10 uM
cAMP and cAMP-inhibited cGMP 3',5'-cyclic phosphodiesterase 10A (Homo sapiens), sequence (Q9Y233 whole entry): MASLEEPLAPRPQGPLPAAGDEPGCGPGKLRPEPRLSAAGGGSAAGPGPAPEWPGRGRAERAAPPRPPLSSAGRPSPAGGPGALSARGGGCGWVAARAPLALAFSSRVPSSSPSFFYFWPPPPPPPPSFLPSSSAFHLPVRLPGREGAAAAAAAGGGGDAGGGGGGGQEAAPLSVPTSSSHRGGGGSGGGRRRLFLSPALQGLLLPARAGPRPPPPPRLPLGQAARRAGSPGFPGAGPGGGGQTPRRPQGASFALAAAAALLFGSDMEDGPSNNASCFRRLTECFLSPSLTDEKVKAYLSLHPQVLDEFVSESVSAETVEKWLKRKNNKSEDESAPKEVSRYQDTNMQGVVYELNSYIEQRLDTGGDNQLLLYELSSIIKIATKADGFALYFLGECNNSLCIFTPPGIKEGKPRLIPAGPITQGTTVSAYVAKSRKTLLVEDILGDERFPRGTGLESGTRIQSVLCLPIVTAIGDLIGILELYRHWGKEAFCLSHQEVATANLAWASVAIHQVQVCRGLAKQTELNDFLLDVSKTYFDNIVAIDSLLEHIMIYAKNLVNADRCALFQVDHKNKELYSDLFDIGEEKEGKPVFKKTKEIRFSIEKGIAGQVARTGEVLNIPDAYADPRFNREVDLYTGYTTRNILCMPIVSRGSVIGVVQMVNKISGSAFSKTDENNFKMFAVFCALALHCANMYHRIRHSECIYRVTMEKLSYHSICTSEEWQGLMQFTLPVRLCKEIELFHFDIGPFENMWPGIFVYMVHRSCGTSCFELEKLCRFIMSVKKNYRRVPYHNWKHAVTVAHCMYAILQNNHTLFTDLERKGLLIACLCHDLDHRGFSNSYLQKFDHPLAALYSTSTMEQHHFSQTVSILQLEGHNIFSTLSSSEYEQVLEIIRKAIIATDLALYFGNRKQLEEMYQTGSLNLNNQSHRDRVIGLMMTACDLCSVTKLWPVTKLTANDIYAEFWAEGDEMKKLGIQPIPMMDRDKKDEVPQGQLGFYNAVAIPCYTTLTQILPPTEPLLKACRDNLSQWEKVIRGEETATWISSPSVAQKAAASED

[16] = Volume of distribution at steady state in CD-1 mouse at 0.1 mg/kg, iv or 1 mg/kg, po by LC-MS/MS analysis; assay type: ADME, organism-based; conditions: in vivo, read-out: Vdss
[17] = Volume of distribution at steady state in Sprague-Dawley rat at 0.1 mg/kg, iv or 1 mg/kg, po by LC-MS/MS analysis; assay type: ADME, organism-based; conditions: in vivo, read-out: Vdss
[18] = Volume of distribution at steady state in Beagle dog at 0.1 mg/kg, iv or 1 mg/kg, po by LC-MS/MS analysis; assay type: ADME, organism-based, Canis lupus familiaris; conditions: in vivo, read-out: Vdss
[19] = Tmax in CD-1 mouse at 0.1 mg/kg, iv or 1 mg/kg, po by LC-MS/MS analysis; assay type: ADME, organism-based; conditions: in vivo
[20] = Tmax in Sprague-Dawley rat at 0.1 mg/kg, iv or 1 mg/kg, po by LC-MS/MS analysis; assay type: ADME, organism-based; conditions: in vivo
[21] = Tmax in Beagle dog at 0.1 mg/kg, iv or 1 mg/kg, po by LC-MS/MS analysis; assay type: ADME, organism-based, Canis lupus familiaris; conditions: in vivo
[22] = Cmax in CD-1 mouse at 1 mg/kg, po by LC-MS/MS analysis; assay type: ADME, organism-based; set-up: dose 1 mg/kg, route oral; conditions: in vivo
[23] = Cmax in Sprague-Dawley rat at 1 mg/kg, po by LC-MS/MS analysis; assay type: ADME, organism-based; set-up: dose 1 mg/kg, route oral; conditions: in vivo
[24] = Cmax in Beagle dog at 1 mg/kg, po by LC-MS/MS analysis; assay type: ADME, organism-based, Canis lupus familiaris; set-up: dose 1 mg/kg, route oral; conditions: in vivo
[25] = AUC(0 to infinity) in CD-1 mouse at 0.1 mg/kg, iv or 1 mg/kg, po by LC-MS/MS analysis; assay type: ADME, organism-based; conditions: in vivo
[26] = AUC(0 to infinity) in Sprague-Dawley rat at 0.1 mg/kg, iv or 1 mg/kg, po by LC-MS/MS analysis; assay type: ADME, organism-based; conditions: in vivo
[27] = AUC(0 to infinity) in Beagle dog at 0.1 mg/kg, iv or 1 mg/kg, po by LC-MS/MS analysis; assay type: ADME, organism-based, Canis lupus familiaris; conditions: in vivo
[28] = Oral bioavailability in CD-1 mouse at 1 mg/kg by LC-MS/MS analysis; assay type: ADME, organism-based; conditions: in vivo
[29] = Oral bioavailability in Sprague-Dawley rat at 1 mg/kg by LC-MS/MS analysis; assay type: ADME, organism-based; conditions: in vivo
[30] = Oral bioavailability in Beagle dog at 1 mg/kg by LC-MS/MS analysis; assay type: ADME, organism-based, Canis lupus familiaris; conditions: in vivo
Rattus norvegicus [31] = assay: fCmax in Sprague-Dawley rat at 1 mg/kg, po after 5 hrs by LC-MS/MS analysis; assay type: ADME, organism-based; conditions: in vivo
Rattus norvegicus [32] = assay: Reduction in mean arterial pressure in po dosed normotensive Sprague-Dawley rat measured after 12 to 24 hrs; assay type: functional; conditions: Artery
Rattus norvegicus [33] = assay: Reduction in mean arterial pressure in normotensive Sprague-Dawley rat at 10 mg/kg, po measured after 12 to 24 hrs; assay type: functional, Artery
Rattus norvegicus [34] = assay: Reduction in mean arterial pressure in normotensive Sprague-Dawley rat at 30 mg/kg, po measured after 12 to 24 hrs; assay type: functional, Artery

Structure (SMILES): N#Cc1cc(-c2ncc(F)c(O)n2)nn1Cc1ccccc1F
Emax [4]: 73%

Structure (SMILES): O=c1[nH]c(-c2cc(-c3ccon3)n(CCC(F)(F)C(F)(F)F)n2)ncc1F
EC50 [1]: 1500 nM | microsomal CLint at 2 µM [2]: 4 µL/min/mg | microsomal CLint at 2 µM [3]: 6 µL/min/mg

Structure (SMILES): O=c1[nH]c(-c2cc(-c3ccon3)n(Cc3ccc(F)cc3F)n2)ncc1F
EC50 [1]: 530 nM | microsomal CLint at 2 µM [2]: 4 µL/min/mg | microsomal CLint at 2 µM [3]: 4 µL/min/mg

Structure (SMILES): Oc1nc(-c2cc(-c3ccon3)n(Cc3ncccc3F)n2)ncc1F
Emax [4]: 44% | microsomal CLint at 2 µM [2]: 7 µL/min/mg | microsomal CLint at 2 µM [3]: 15 µL/min/mg

Structure (SMILES): N#Cc1cc(-c2ncc(F)c(=O)[nH]2)nn1Cc1ccccc1F
microsomal CLint at 2 µM [2]: 9 µL/min/mg | microsomal CLint at 2 µM [3]: 7 µL/min/mg

Structure (SMILES): Cc1cc(-c2cc(-c3ncc(F)c(O)n3)nn2Cc2ccccc2F)no1
Emax [4]: 23% | microsomal CLint at 2 µM [2]: 249 µL/min/mg | microsomal CLint at 2 µM [3]: 118 µL/min/mg

Structure (SMILES): Oc1nc(-c2cc(-c3ncon3)n(Cc3ccccc3F)n2)ncc1F
Emax [4]: 68% | microsomal CLint at 2 µM [2]: 4 µL/min/mg

Structure (SMILES): Oc1nc(-c2cc(C3CC3)n(Cc3ccccc3F)n2)ncc1F
Emax [4]: 26% | microsomal CLint at 2 µM [2]: 10 µL/min/mg

Continued, in another order:

EC50 [1]: 1500 nM | microsomal CLint at 2 µM [2]: 68 µL/min/mg | microsomal CLint at 2 µM [3]: 42 µL/min/mg
Structure (SMILES): Oc1nc(-c2cc(-c3ncco3)n(Cc3ccccc3F)n2)ncc1F

EC50 [1]: 730 nM | microsomal CLint at 2 µM [2]: 58 µL/min/mg | microsomal CLint at 2 µM [3]: 179 µL/min/mg
Structure (SMILES): CN(c1ccccc1)S(=O)(=O)c1cnc(-c2cc(-c3ccon3)n(Cc3ccccc3F)n2)nc1O

Emax [4]: 40% | microsomal CLint at 2 µM [2]: 8 µL/min/mg | microsomal CLint at 2 µM [3]: 8 µL/min/mg
Structure (SMILES): CC(C)(O)c1cnc(-c2cc(-c3ccon3)n(Cc3ccccc3F)n2)nc1O

EC50 [1]: 350 nM | microsomal CLint at 2 µM [2]: 27 µL/min/mg | microsomal CLint at 2 µM [3]: 18 µL/min/mg
Structure (SMILES): O=S(=O)(c1ccccc1)c1cnc(-c2cc(-c3ccon3)n(Cc3ccccc3F)n2)nc1O

EC50 [1]: 500 nM | microsomal CLint at 2 µM [2]: 14 µL/min/mg | microsomal CLint at 2 µM [3]: 8 µL/min/mg
Structure (SMILES): N#Cc1cnc(-c2cc(-c3ccon3)n(Cc3ccccc3F)n2)nc1O

EC50 [1]: 590 nM | microsomal CLint at 2 µM [2]: 5 µL/min/mg | microsomal CLint at 2 µM [3]: 7 µL/min/mg
Structure (SMILES): Oc1nc(-c2cc(-c3ccon3)n(Cc3ccccc3F)n2)ncc1Cl

EC50 [1]: 370 nM | microsomal CLint at 2 µM [2]: 3 µL/min/mg | microsomal CLint at 2 µM [3]: 7 µL/min/mg
Structure (SMILES): Oc1nc(-c2cc(-c3ccon3)n(Cc3cccc(F)c3F)n2)ncc1F

pKa [5]: 5.75 | solubility thermodynamic [6]: 3 µg/mL (≈ 8.44 µM) | solubility thermodynamic [7]: 142 µg/mL (≈ 400 µM) | Papp A→B [8]: 21.8 ×10⁻⁶ cm/s | Activity [9]: 21% | inhibition [10]: < 30% | inhibition [11]: < 30% | inhibition [12]: < 30% | inhibition [13]: < 30% | inhibition [14]: < 30% | inhibition [15]: < 30% | Vd [16]: 1.3 L/kg | Vd [17]: 0.18 L/kg | Vd [18]: 0.095 L/kg | Tmax [19]: 1.7 h | Tmax [20]: 5.3 h | Tmax [21]: 3.3 h | Cmax [22]: 1000 ng/mL | Cmax [23]: 1500 ng/mL | Cmax [24]: 3500 ng/mL | AUC(0-inf) [25]: 4500 ng·h/mL | AUC(0-inf) [26]: 25000 ng·h/mL | AUC(0-inf) [27]: 41700 ng·h/mL | bioavailability [28]: > 100% | bioavailability [29]: 96% | bioavailability [30]: 45% | fCmax (Rattus norvegicus [31]): 80 nM
Structure (SMILES): Oc1nc(-c2cc(-c3ccon3)n(Cc3ccccc3F)n2)ncc1F
Activity (Rattus norvegicus [32]): Dose-dependent effect | minimal effective dose (Rattus norvegicus [32]; read-out: MED): 1 mg/kg | Activity (Rattus norvegicus [33]): 10 mmHg | Activity (Rattus norvegicus [34]): -30 mmHg

Emax [4]: 92% | microsomal CLint at 2 µM [2]: 15 µL/min/mg | microsomal CLint at 2 µM [3]: 12 µL/min/mg
Structure (SMILES): Oc1ccnc(-c2cc(-c3ccon3)n(Cc3ccccc3F)n2)n1
